Where no end group is shown, it is not given here.
Columns and labels:
splenic B lymphocytes = experiment: Splenic B lymphocyte proliferation (CD86) and differentiation (GL-7) after three weekly injections; format: in vivo, BALB/c female mice; conditions: 10 μg/mouse tail vein, once a week, three times; one week after last administration
Excerpt: (§1) The role of folate modification in mediating humoral immunosuppression and in reducing Anti-Drug Antibodies (ADA) of biomacromolecular drugs was investragated by using ovalbumin (OVA) as a model protein. OVA has strong immunogenicity and can induce the body to produce an immune response. Repeated stimulation of mice by OVA can cause the mice to produce lots of specific antibodies. The BALB/c female mice (5 weeks old) were randomly divided into FA-OVA (folate-OVA complex. Example 1) group, OVA group and physiological saline control group, with 6 mice in each group. FA-OVA, OVA and physiological saline were administered to mice via tail vein injection at a dose of 10 μg/mouse, once a week, three times in total.
One week after the last administration, the spleen lymphocyte suspension was collected and subjected to flow cytometry for analysis of proliferation and differentiation of splenic B lymphocytes. CD86 was used as a marker for cell proliferation, and GL-7 was used as germinal center B-cell surface marker. FIGS. 11a and 11b provide the CD86 flow sorting graphs and statistical analysis results of mouse spleen lymphocytes, respectively. FIGS. 11c and 11d provide the GL7 flow sorting graphs and statistical analysis results of mouse spleen lymphocytes, respectively.

OVA-specific antibodies = experiment: Serum OVA-specific antibodies by ELISA after three weekly injections; format: in vivo, BALB/c female mice; conditions: 10 μg/mouse tail vein, once a week, three times; one week after last administration
Excerpt: as §1
One week after the last administration, the serum of the mice was collected and was measured by ELISA for the expression of OVA-specific antibodies in the serum. The results are shown in FIG. 12, wherein FIGS. 12a, 12b, 12c and 12d show the results of OVA-specific IgE, IgG, IgG1 and IgG2a, respectively.

[1] = tested on: anaphylactic shock induced by OVA (allergen); experiment: Prevention of anaphylactic shock: pretreatment, then OVA challenge; format: in vivo; conditions: pretreatment 10 μg OVA/mouse iv weekly x3; challenge 10 μg OVA
Description: The BALB/c female mice (5 weeks old) were randomly divided into FA-OVA group, OVA group and physiological saline group, with 10 mice in each group. FA-OVA or OVA or physiological saline of an equal volume was administered to the mice via tail vein injection at a dose of 10 μg OVA/mouse, once a week for a total of three times. One week after the last administration, each mouse was injected with 10 μg OVA (allergen) via tail vein. Changes in body temperature of the mice within 2 hours after OVA stimulation were recorded (FIG. 18). In the meanwhile, the serum was collected from the mice, and was measured by ELISA for the expression of OVA-specific antibodies in the serum (FIG. 19). […] Therefore, folate modification can effectively prevent anaphylactic shock induced by allergens.

[2] = tested on: Anti-Drug Antibodies (ADAs); conditions: phase I single-dose study, healthy subjects; cited from earlier work
[3] = Water solubility (observation on preparation); format: physicochemical
OVA-specific IgG = experiment: Oral folic acid: serum OVA-specific IgG by ELISA; format: in vivo, BALB/c female mice
Description: The BALB/c female mice (5 weeks old) were randomly divided into 4 groups, with 6 mice in each group, and were treated as follows: (1) FA(ig) group: each mouse was administered with 3 mg free folic acid by gavage every day for two weeks: (2) FA(ig)+OVA group: each mouse was administered with 3 mg free folic acid by gavage every day for two weeks, and was administered with OVA via tail vein injection on day 0 and day 7 respectively (10 μg/mouse): (3) OVA group: each mouse was administered with OVA via tail vein injection on days 0 and day 7 respectively (10 μg/mouse); (4) Physiological saline group: each mouse was administered with physiological saline via tail vein injection on day 0 and day 7 respectively. Then, on days 14, 21 and 28, all mice were administered with 100 μl mixed solution of OVA and KLH (hemocyanin) in water (100 μg/mL OVA and 100 ug/mL KLH). The serum was collected before the administration of the mixed solution on days 14, 21 and 28 and on day 35. The specific antibodies in the serum were detected by ELISA. […] The immune function of the body recovered when the administration of FA is discontinued.

KLH-specific antibodies = experiment: Oral folic acid: serum KLH-specific antibodies by ELISA; format: in vivo, BALB/c female mice; conditions: FA(ig) group vs physiological saline group; days 21, 28, 35
Description: The BALB/c female mice (5 weeks old) were randomly divided into 4 groups, with 6 mice in each group, and were treated as follows: (1) FA(ig) group: each mouse was administered with 3 mg free folic acid by gavage every day for two weeks: (2) FA(ig)+OVA group: each mouse was administered with 3 mg free folic acid by gavage every day for two weeks, and was administered with OVA via tail vein injection on day 0 and day 7 respectively (10 μg/mouse): (3) OVA group: each mouse was administered with OVA via tail vein injection on days 0 and day 7 respectively (10 μg/mouse); (4) Physiological saline group: each mouse was administered with physiological saline via tail vein injection on day 0 and day 7 respectively. Then, on days 14, 21 and 28, all mice were administered with 100 μl mixed solution of OVA and KLH (hemocyanin) in water (100 μg/mL OVA and 100 ug/mL KLH). The serum was collected before the administration of the mixed solution on days 14, 21 and 28 and on day 35. The specific antibodies in the serum were detected by ELISA. […] The results also confirmed that the immune function of the body recovered when the administration of FA is discontinued.

[4] = tested on: antibodies against infliximab; experiment: Serum antibodies against infliximab by ELISA; format: in vivo, BALB/c female mice; conditions: FA gavage+infliximab group: 3 mg free folic acid per day for two weeks, infliximab 60 μg/mouse iv days 0, 7, 14; serum day 21
Description: The BALB/c female mice (6 weeks old) were randomly divided into infliximab group, FA gavage+infliximab group and physiological saline group, with 5 mice in each group. For the infliximab group, a dose of 60 μg antibody/mouse was administrated via tail vein injection on days 0, 7 and 14. For the FA gavage+infliximab group, each mouse was administered with 3 mg free folic acid by gavage per day for two weeks, and infliximab was administered via tail vein injection at a dose of 60 μg antibody/mouse on days 0, 7 and 14. For the physiological saline group, the mice were injected with physiological saline via tail vein on days 0, 7 and 14. One week after the last administration (day 21), the serum was collected from the mice, and was measured by ELISA for the antibodies against infliximab.

[5] = tested on: antibodies against trastuzumab; experiment: Serum antibodies against trastuzumab by ELISA; format: in vivo, BALB/c female mice; conditions: FA gavage+trastuzumab group: 3 mg free folic acid per day for two weeks, trastuzumab 60 μg/mouse iv days 0, 7, 14; serum day 21
Description: For the FA gavage+trastuzumab group, each mouse was administered by gavage with 3 mg free folic acid per day for two weeks, and trastuzumab was administered via tail vein injection at a dose of 60 μg antibody/mouse on days 0, 7 and 14. For the physiological saline group, the mice were injected with physiological saline via tail vein on days 0, 7 and 14. One week after the last administration (day 21), the serum was collected from the mice, and was measured by ELISA for the antibodies against trastuzumab.

antibodies against sLip = experiment: Serum antibodies against liposomes (sLip) by ELISA; format: in vivo, BALB/c female mice; conditions: mixed solution of liposome 5 mg/kg and 10 μg or 50 μg FA, single dose tail vein; serum 5 days after
Description: Liposomes (sLip) were prepared firstly. HSPC. Chol and mPEG2000-DSPE (all purchased from AVT (Shanghai) Pharmaceutical Tech Co., Ltd.) were weighted in a molar ratio of 52:43:5. The film materials were dissolved in 5 mL chloroform, and the mixture was subjected to rotary evaporation under reduced pressure to remove chloroform, to obtain a uniform lipid film. Residual organic solvent was removed by vacuum drying overnight. Shaking in a water bath at 60° C. was performed until the liposome membrane is completely hydrated to obtain white liposome suspension. The liposome suspension went through 200 and 100 nuclear pore membrane by a micro-extruder sequentially, to obtain a liquid with pale blue opalescence, i.e., a liposome (sLip) solution.
The BALB/c female mice (6 weeks old) were randomly divided into sLip group, sLip+FA (10 μg) group, sLip+FA (50 μg) group and physiological saline group, with 4 mice in each group. For the sLip group, the liposome solution (5 mg liposome/kg mouse body weight) was administered in a single dose via tail vein. For sLip+FA([…]) group, a mixed solution of liposome (5 mg liposome/kg mouse body weight) and 10 μg FA was administered in a single dose via tail vein. […] Serum was collected from all mice 5 days after administration, and was measured by ELISA for the concentrations of the antibodies against sLip.

[6] = tested on: experimental autoimmune encephalomyelitis (EAE) model; experiment: Experimental autoimmune encephalomyelitis (EAE) model; format: in vivo, female C57/BL6 mice; conditions: 10 μg/mouse iv once a week x3 before PLP emulsion induction
Description: The efficacy of folate modification in autoimmune encephalomyelitis was investigated using an experimental autoimmune encephalomyelitis (EAE) model. The model was established as follows: the animals were injected with whole protein or protein fragment (e.g., PLP polypeptide) that induces nerve cell myelin sheath and peripheral protein, causing inflammation and demyelination symptoms and inducing the autoimmune response of the animal: thereby the injected self-proteins are regarded as foreign objects and cause the immune system to attack the self myelin sheath.
The female C57/BL6 mice were intravenously injected with PLP polypeptide (amino acid sequence. […]) or folate-PLP complex (FA-PLP) at a dose of 10 μg/mouse, once a week for three times in total. One week later, the emulsion of PLP polypeptide in Freund's complete adjuvant was prepared, the concentration of PLP being 1 μg/μL. Four points were set up on both sides of the back of the mouse, and 0.05 mL PLP emulsion was injected subcutaneously at each point to induce inflammation, 2 and 24 hours after PLP injection, 150 ng pertussis toxin was injected intraperitoneally. The incidence in the mice was observed every day, and the mice were scored according to the 5-point scoring standard (Kono method). The incidence scoring curve was plotted.

[7] = tested on: anaphylactic shock in OVA-sensitized mice; experiment: Treatment of anaphylactic shock: OVA-sensitized mice treated, then OVA challenge; format: in vivo, BALB/c female mice; conditions: 4 μg/mouse iv every two days x3, challenge 25 μg OVA
Description: The BALB/c female mice (5 weeks old) were subcutaneously injected with 10 μg OVA for sensitization, once a week, three times in total. One week after the last sensitization, the OVA-sensitized mice were injected with FA-OVA, OVA and physiological saline via tail vein at a dose of 4 μg/mouse, once every two days for three times in total. After the last administration, the mice were injected with 25 μg OVA (allergen) via tail vein. Changes in body temperature of the mice within 2 hours after the injection were recorded (FIG. 20). In the meanwhile, the serum was collected from the mice and was measured by ELISA for the level of the OVA-specific antibodies in the serum (FIG. 21). The mice without OVA sensitization but stimulated by tail vein injection of OVA served as the Naïve control group.

Compound: OVA: ovalbumin, model protein and allergen [reference compound]
- proliferation of B-cell (CD86) and differentiation into germinal center B-cell (GL-7) (splenic B lymphocytes): proliferated significantly and differentiated into the germinal center B-cell
- expression of OVA-specific antibodies in the serum (IgE, IgG, IgG1, IgG2a) (OVA-specific antibodies): a large amount of OVA-specific antibodies
- body temperature within 2 hours after OVA stimulation [1]: dropped significantly
- serum OVA-specific antibodies (IgE, IgG1, IgG2a) after challenge [1]: a large number of OVA-specific antibodies

Compound: adalimumab
- incidence of ADAs [2]: 70-100%

Compound: Nc1nc2ncc(CNc3ccc(C(=O)N[C@@H](CCC(=O)O)C(=O)O)cc3)nc2c(=O)[nH]1 [folic acid]
- water solubility [3]: insoluble in water
- level of OVA-specific IgG in the serum (OVA-specific IgG; day 28, FA(ig)+OVA group, after FA discontinued): comparable to that in the OVA group
- level of OVA-specific IgG in the serum (OVA-specific IgG; days 14 and 21, FA(ig)+OVA group: 3 mg free folic acid by gavage daily for two weeks, OVA 10 μg/mouse iv day 0 and 7): significantly lower than that in the OVA group
- levels of KLH-specific antibodies in serum (KLH-specific antibodies): similar
- level of antibodies against infliximab [4]: significantly lower than that in the infliximab group
- level of antibodies against trastuzumab [5]: significantly lower than that in the trastuzumab group
- production of the antibodies against liposomes (sLip) (antibodies against sLip): effectively reduce the production of the antibodies against liposomes, and the effect increases as the concentration of folic acid increases

Compound: FA-PLP: folate-modified PLP polypeptide HSLGKWLGHPDKF (also: folate conjugate, site not given here)
- immune tolerance to PLP / inflammatory response (incidence score, Kono method) [6]: causes the body's immune tolerance to PLP and contributes to reducing the inflammatory response

Compound: FA-OVA: folate-modified ovalbumin complex, EDC coupling of folic acid to OVA
- proliferation of B-cell (CD86) and differentiation into germinal center B-cell (GL-7) (splenic B lymphocytes): significantly inhibited
- expression of OVA-specific antibodies in the serum (IgE, IgG, IgG1, IgG2a) (OVA-specific antibodies): significantly inhibited
- body temperature within 2 hours after OVA stimulation [1]: did not change significantly
- serum OVA-specific antibodies (IgE, IgG1, IgG2a) after challenge [1]: substantially comparable to the physiological saline group
- effect of treatment on anaphylaxis (body temperature curve) [7]: desensitizing effect
- expressions of OVA-specific antibodies IgE, IgG1 and IgC2a in serum [7]: comparable to those in the physiological saline group and significantly decreased compared with those in the OVA group
- time for body temperature to return to normal after OVA challenge [7]: ≤ 2 h

From US20230381183A1, “USE OF FOLIC ACID AND FOLATE MODIFICATION IN INDUCING B-CELL IMMUNE TOLERANCE AND TARGETING mIgM-POSITIVELY-EXPRESSED B-CELL LYMPHOMA” (FUDAN UNIVERSITY, priority 2020, published 2023)
